{"source": "paper PMC6197257", "about": "(Scientific Reports, 2018)", "key": {"CYP2C9": {"tested_on": "CYP2C9", "set-up": "method as in PMID 26712778, PMID 22943175", "conditions": "competitive inhibitor; cited from earlier work"}, "rat kidney slices": {"tested_on": "rat kidney slices", "assay": "uptake by rat kidney slices", "format": "in vitro ADME", "conditions": "pooled plasma of female EHBRs, pH 5.5, 2 h", "protocol": "Female SD rats (9-week-old) were treated with urethane (1 g/kg, i.p.), and their kidneys were collected. After removal of the capsule, the kidneys were sliced at approximately 0.5-mm thickness in the frontal section of the organ, using a tissue slicer (Natsume Seisakusyo, Tokyo, Japan) and then cut at the renal hilus into two halves. The slices were pre-incubated at either 4 or 37 °C for 15 min in 24-well plates with 0.3 ml of the incubation medium (137 mM NaCl, 5.4 mM KCl, 0.95 mM CaCl2, 0.81 mM MgSO4, 0.44 mM KH2PO4, 0.25 mM Na2HPO4, 5.5 mM glucose, 10 mM MES, adjusted to pH 5.5). Five ml of pooled female EHBR plasma samples was lyophilized, and dissolved in 5 ml of the incubation medium. […] After washing with PBS three times, the kidney slices were homogenated in PBS using sonication, and the concentrations of protein were measured as mentioned above. […]\nLC-ESI(+)MS/MS analysis was conducted at the following conditions: column, Scherzo SM-C18 (3 μm, 3 mm i.d. ×100 mm, Imtakt, Kyoto, Japan); mobile phase, (A) 5 mM AcNH4, (B) 125 mM AcNH4/acetonitrole 1:4, at a flow rate of 0.3 ml/min, with the following gradient profile: A:B = 50:50–0:100 (0–3 min) and 0:100 (3–10 min); compound 1 (5.8 min), astragaloside IV (3.0 min), GA (8.7 min); the transitions monitored were the same as described in the previous section. […]"}, "CYP3A4": {"tested_on": "CYP3A4", "set-up": "method as in PMID 26712778, PMID 22943175", "conditions": "competitive inhibitor; cited from earlier work"}, "CYP2C19": {"tested_on": "CYP2C19", "set-up": "method as in PMID 26712778, PMID 22943175", "conditions": "competitive inhibitor; cited from earlier work"}, "[1]": {"assay": "pharmacokinetics in EHBRs orally treated with GA (200 mg/kg), LC-MS/MS", "format": "in vivo, Eisai Hyperbilirubinemia rats (EHBRs)", "conditions": "Eisai Hyperbilirubinemia rats (EHBR), rat, plasma; female EHBRs, GA 200 mg/kg oral, 12 h; read-out: plasma concentration 12 h after GA treatment", "protocol": "Female SD rats or EHBRs (9-week-old) were anesthetized by an intraperitoneal (i.p.) injection of urethane (1 g/kg) and their jugular veins were exposed. […] Aliquots (10 µl) of plasma or urine were mixed with 20 µl of subtilisin (0.91 U/ml), incubated at 37 °C for 30 min, followed by the addition of 70 µl of astragalloside IV solution (1 µg/ml in ethanol containing 0.5% formic acid), and kept at −20 °C for 30 min."}, "anti-3MGA MAb": {"tested_on": "anti-3MGA MAb", "assay": "competitive ELISA cross-reactivity of anti-3MGA MAb", "format": "binding, mouse", "conditions": "CR = IC50 for 3MGA / IC50 for compound x 100, 3MGA calibrated as 100%", "protocol": "To activate the hapten 3MGA for the preparation of anti-3MGA MAb, the 3MGA-KLH conjugate was synthesized by using a model based on the carbodiimide method with both EDC and NHS reagents. 3MGA-HSA was also prepared using the same method, and was used for ELISA. We also evaluated the hapten number of the 3MGA-HSA conjugate by MALDI-TOF MS analysis. […] The MAb was developed by using the same methods described in our previous study. Hybridomas secreting antibodies recognizing 3MGA were selected by ELISA and then subcloned 4 times by the limited dilution method. […] The heavy chain of the obtained MAb was classified using a Calbiochem mouse hybridoma subisotyping kit (EMD Biosciences, Darmstadt, Germany), whereas the light chain was estimated using an IsoQuick^TM mouse monoclonal isotyping strip (Sigma) according to the manufacturer’s instructions.\n3MGA-HSA (1 µg/ml in 50 mM carbonate buffer, pH 9.6) was added into a 96-well plate (Nagel Nunc, Penfield, NY, USA) (100 µl/well), and incubated at 37 °C for 1 h. After the removal of 3MGA-HSA, the wells were washed with 200 µl/well PBS containing 0.05% Tween 20 (T-PBS) for 3 times. The wells were incubated with 300 µl/well of 5% skim milk (Morinaga-milk, Tokyo, Japan) at 4 °C overnight. […] After the wells were washed with T-PBS 3 times, HRP-labeled goat anti-mouse IgG (Fc specific) antibody (1:1,000 dilution with T-PBS) was added into the wells (100 µl/well), and the plate was incubated at 37 °C for 1 h. Next, the wells were washed with T-PBS 3 times, the substrate solution (0.006% H2O2 in 200 mM citrate buffer, pH 4.0/H2O/0.6 mg/ml ABTS 10:9:1) was added into the wells (100 µl/well), and incubated at room temperature for 15 min."}, "[2]": {"assay": "concentrations in pooled plasma of EHBRs 12 h after oral GA (200 mg/kg)", "format": "in vivo", "conditions": "Eisai Hyperbilirubinemia rats (EHBR), rat", "protocol": "Three female and three male EHBRs (9-week-old, respectively) were injected with urethane (1 g/kg, i.p.), and orally treated with an aqueous GA aqueous suspension (200 mg/kg in 1% CMC). Twelve h after the treatment, blood was collected from the abdominal vena cava, and the plasma samples of each sex rat were pooled.\nLC-ESI(+)MS/MS analysis was conducted at the following conditions: column, Scherzo SM-C18 (3 μm, 3 mm i.d. ×100 mm, Imtakt, Kyoto, Japan); mobile phase, (A) 5 mM AcNH4, (B) 125 mM AcNH4/acetonitrole 1:4, at a flow rate of 0.3 ml/min, with the following gradient profile: A:B = 50:50–0:100 (0–3 min) and 0:100 (3–10 min); compound 1 (5.8 min), astragaloside IV (3.0 min), GA (8.7 min); the transitions monitored were the same as described in the previous section. Linear regressions over the concentration range 0.08–2 µM for compound 1 and 3.2 nM–2 µM for GA were examined using the peak-area ratio of the compounds to their internal standards and the least-squares method (r^2 > 0.98)."}}}
{"smiles": "CC1(C)[C@@H](O)CC[C@]2(C)[C@H]3C(=O)C=C4[C@@H]5C[C@@](C)(C(=O)O)CC[C@]5(C)CC[C@@]4(C)[C@]3(C)CC[C@@H]12", "note": "[GA, 18β-glycyrrhetinic acid]", "values": [{"measurement": "IC50", "setting": "CYP2C9", "value": "33 to 43", "unit": "µM"}, {"measurement": "uptake by kidney slices at 37 °C compared with 4 °C", "setting": "rat kidney slices", "value": "similar"}, {"measurement": "IC50", "setting": "CYP3A4", "value": "8.2 to 14", "unit": "µM"}, {"measurement": "IC50", "setting": "CYP2C19", "value": "41 to 74", "unit": "µM"}, {"measurement": "concentration at 12 h", "setting": "[1]", "value": 5.9, "unit": "µM"}, {"measurement": "cross-reactivity of anti-3MGA MAb", "setting": "anti-3MGA MAb", "value": 1.04, "unit": "%"}, {"measurement": "concentration at 12 h", "setting": "[2]; female, read-out: concentration in pooled plasma, female EHBRs", "value": 7, "unit": "µM"}, {"measurement": "concentration at 12 h", "setting": "[2]; male, read-out: concentration in pooled plasma, male EHBRs", "value": 3.2, "unit": "µM"}]}
{"smiles": "CC1(C)[C@@H](O[C@H]2O[C@H](C(=O)O)[C@@H](O)[C@H](O)[C@H]2O[C@@H]2O[C@H](C(=O)O)[C@@H](O)[C@H](O)[C@H]2O)CC[C@]2(C)[C@H]3C(=O)C=C4[C@@H]5C[C@@](C)(C(=O)O)CC[C@]5(C)CC[C@@]4(C)[C@]3(C)CC[C@@H]12", "note": "[GL, glycyrrhizin]", "values": [{"measurement": "cross-reactivity of anti-3MGA MAb", "setting": "anti-3MGA MAb", "value": 0.22, "unit": "%"}]}
{"smiles": "CC(C)=CCC[C@](C)(O[C@@H]1O[C@H](CO[C@@H]2O[C@H](CO)[C@@H](O)[C@H](O)[C@H]2O)[C@@H](O)[C@H](O)[C@H]1O)[C@H]1CC[C@]2(C)[C@@H]1[C@H](O)C[C@@H]1[C@@]3(C)CC[C@H](O[C@@H]4O[C@H](CO)[C@@H](O)[C@H](O)[C@H]4O[C@@H]4O[C@H](CO)[C@@H](O)[C@H](O)[C@H]4O)C(C)(C)[C@@H]3CC[C@]12C", "note": "[ginsenoside Rb1]", "values": [{"measurement": "cross-reactivity of anti-3MGA MAb", "setting": "anti-3MGA MAb", "value": "less than 0.02%"}]}
{"smiles": "C[C@]1(C(=O)O)CC[C@]2(C)CC[C@]3(C)C(=CC(=O)[C@@H]4[C@@]5(C)CC[C@H](O[C@@H]6O[C@H](C(=O)O)[C@@H](O)[C@H](O)[C@H]6O[C@@H]6O[C@H](C(=O)O)[C@@H](O)[C@H](O)[C@H]6O)[C@](C)(CO)[C@@H]5CC[C@]43C)[C@@H]2C1", "note": "[licorice saponin G2]", "values": [{"measurement": "cross-reactivity of anti-3MGA MAb", "setting": "anti-3MGA MAb", "value": "less than 0.02%"}]}
{"smiles": "O=C1C[C@@H](c2ccc(O[C@@H]3O[C@H](CO)[C@@H](O)[C@H](O)[C@H]3O)cc2)Oc2cc(O)ccc21", "note": "[liquiritin]", "values": [{"measurement": "cross-reactivity of anti-3MGA MAb", "setting": "anti-3MGA MAb", "value": "less than 0.02%"}]}
{"smiles": "C[C@@]12C[C@@]3(O)O[C@@H](O1)[C@]1(COC(=O)c4ccccc4)[C@H]3C[C@@]12O[C@@H]1O[C@H](CO)[C@@H](O)[C@H](O)[C@H]1O", "note": "[paeoniflorin]", "values": [{"measurement": "cross-reactivity of anti-3MGA MAb", "setting": "anti-3MGA MAb", "value": "less than 0.02%"}]}
{"smiles": "C[C@H]1O[C@@H](O[C@H]2CC[C@@]3(C)[C@@H](CC[C@]4(C)[C@@H]3C=C[C@]35OC[C@@]6(CCC(C)(C)C[C@H]63)[C@@H](O)C[C@]54C)[C@]2(C)CO)[C@H](O)[C@@H](O[C@@H]2O[C@H](CO)[C@@H](O)[C@H](O)[C@H]2O)[C@H]1O", "note": "[saikosaponin a]", "values": [{"measurement": "cross-reactivity of anti-3MGA MAb", "setting": "anti-3MGA MAb", "value": "less than 0.02%"}]}
